Results from patent US6599860B1, “Herbicidal halogenalkyl-substituted 3-(4,5-dihydroisoxazol-3-yl)-benzoyl-cyclohexenones” (BASF Aktiengesellschaft, priority 1999, dated 2003).

melting point: 98 to 103 °C
SMILES: Cc1c(C(=O)C2C(=O)C3CCC(C3)C2=O)ccc(S(C)(=O)=O)c1C1=NOC(CCl)C1 (stereo not shown) [Compound 2.2, 3-[2-Methyl-3-(5-chloromethyl-4,5-dihydroisoxazol-3-yl)-4-methyl-sulfonylbenzoyl]bicyclo[3.2.1]octane-2,4-dione]
